# Measured values: patent US20110165115A1, “SYNERGISTIC ATTRACTANTS FOR PESTIFEROUS SOCIAL INSECTS” (STERLING INTERNATIONAL INC., priority 2010, published 2011)
# Legend:
# D. maculata = test: Field trapping Experiment 1, Rescue W•H•Y traps; assay type: in vivo, Dolichovespula maculata; conditions: Exp 1; HIPV added to WHY attractant in the top chamber, or WHY alone
# Description: (§1) Three field trapping experiments were carried out during late July to early August 2009, in residential and woody areas around Spokane, Wash., USA, using the newly marketed Rescue® W•H•Y traps (www.rescue.com). As used herein, the W•H•Y trap is a trap in accordance with the description of United States Patent Application Publication No. 2009/0151228. The W•H•Y trap has a top chamber and a bottom chamber. The top chamber is baited with two attractants—one of which is a solid contained in a vial (2-methyl-1-butanol) and the other a liquid mixed with water (acetic acid), herein referred to as the W•H•Y top attractant. The bottom chamber is baited with a liquid attractant (heptyl butyrate) poured onto a cotton pad, herein referred to as the W•H•Y bottom attractant. Separation of the top and bottom attractants (otherwise antagonistic to each other when released from the same chamber) in two chambers was a design feature of this trap and creates two focal attraction sources from one trap for different species of wasps, hornets, and yellowjackets. Traps were hung 1.5-2.0 m above the ground on either the fence or tree branches ca. 5 m apart within each trap line. For each trapping experiment, six sets of traps were deployed with their initial trap positions within each set being randomized. To minimize positional effects and obtain more replications, wasp collections and trap re-randomization were carried out when ≧10-20 wasps were caught in the best trap. Each replicate lasted several days depending on wasp flight activity. Captured wasps were removed from the traps and kept in the zip-bags before taking back to the laboratory for recording of the species, gender status, and catch.
# (§2) Experiment 1 (Jul. 22-30, 2009) tested ten synthetic HIPV candidates [(E)-2-hexenal, (Z)-3-hexen-1-ol, (Z)-3-hexenyl acetate, cis-ocimene, linalool, methyl salicylate, geranyl acetate, trans-β-caryophyllene, trans-β-farnesene and (E)-4,8-dimethyl-1,3,7-nonatriene], including several paper wasp EAD-active compounds (see FIG. 2 for details), to determine their potential synergistic effect on the Rescue® W•H•Y trap attractants to paper wasps, yellowjackets, and hornets. Experiment 2 (Aug. 5-13, 2009) tested behavioral responses of the paper wasps and yellowjackets to the Rescue® W•H•Y trap attractants (top attractants only) and its combination with (E)-4,8-dimethyl-1,3,7-nonatriene, one of the EAD-active and behaviorally significant HIPVs, in a dose-response fashion. Experiment 3 (Aug. 5-13, 2009) was conducted to determine the potential behavioral activity of different doses of (E)-4,8-dimethyl-1,3,7-nonatriene alone. The individual (or different doses) HIPVs were loaded into either polyethylene bags or centrifuge tube type of dispensers, and released from the top of the W•H•Y trap chamber. W•H•Y trap attractants (both top and bottom or top only) alone and water (top chamber only) were included in the test as positive and blank controls, respectively. The dispenser types, loading and release rates of the tested semiochemicals are described in Tables 1, 2 and 3.
# (§3) Trap catch data were converted to proportion (P) of total captured wasps within each replicate. Data were then transformed by arcsin√P to meet the assumptions of normality and homogeneity of variances for ANOVA. Means were compared by ANOVA followed by the Ryan-Einot-Gabriel-Welsh (REGW) multiple Q test (SPSS 16.0 for Windows) at α=0.05.
# P. dominulus = test: Field trapping Experiment 1, Rescue W•H•Y traps; assay type: in vivo, Polistes dominulus; conditions: Exp 1; HIPV added to WHY attractant in the top chamber, or WHY alone
# Description: as §1
# (§4) Experiment 3 (Aug. 5-13, 2009) was conducted to determine the potential behavioral activity of different doses of (E)-4,8-dimethyl-1,3,7-nonatriene alone. The individual (or different doses) HIPVs were loaded into either polyethylene bags or centrifuge tube type of dispensers, and released from the top of the W•H•Y trap chamber. W•H•Y trap attractants (both top and bottom or top only) alone and water (top chamber only) were included in the test as positive and blank controls, respectively. The dispenser types, loading and release rates of the tested semiochemicals are described in Tables 1, 2 and 3.
# as §3
# V. acadica = test: Field trapping Experiment 1, Rescue W•H•Y traps; assay type: in vivo, Vespula acadica; conditions: Exp 1; HIPV added to WHY attractant in the top chamber, or WHY alone
# Description: as §1, §4, §3
# V. pensylvanica [1] = test: Field trapping Experiment 1, Rescue W•H•Y traps; assay type: in vivo, Vespula pensylvanica; conditions: Exp 1; HIPV added to WHY attractant in the top chamber, or WHY alone
# Description: as §1, §4, §3
# P. aurifer = test: Field trapping Experiment 1, Rescue W•H•Y traps; assay type: in vivo, Polistes aurifer; conditions: Exp 1; HIPV added to WHY attractant in the top chamber, or WHY alone
# Description: as §1, §4, §3
# V. consobrina = assay type: in vivo, Vespula consobrina; conditions: Exp 1; HIPV added to WHY attractant in the top chamber, or WHY alone
# Description: as §1, with “catch. […]” for “catch.”
# as §3
# V. atropilosa = assay type: in vivo, Vespula atropilosa; conditions: Exp 1; HIPV added to WHY attractant in the top chamber, or WHY alone
# Description: as §1, with “catch. […]” for “catch.”
# as §3
# [2] = system: P. dominulus workers antennae; test: GC-EAD of synthetic mixture of known HIPVs; set-up: species or system Polistes dominulus; conditions: 100 ng/μl each in hexane
# Description: Aeration samples of the cherry branches (damaged or undamaged/slightly damaged) were injected (3 μl) splitless into a Varian CP-3800 GC equipped with a polar column (HP-INNOWax; 30 m×0.53 mm×1.0 μm film thickness; Agilent Technologies, Wilmington, Del., USA) and a 1:1 effluent splitter that allowed simultaneous flame ionization detection (FID) and electroantennographic detection (EAD) of the European paper wasp (Polistes dominulus) worker antennae to the separated volatile compounds. Helium was used as the carrier gas, and the injector and detector temperatures were 250° C. and 300° C., respectively. Column temperature was 50° C. for 1 min, rising to 240° C. at 10° C./min, and then held for 10 min. The outlet for the EAD was held in a humidified air stream flowing at 0.5 m/sec over the antennal preparation. EAD recordings were made using silver wire-glass capillary electrodes filled with Beadle-Ephrussi Ringer on freshly cut antennae. The antennal signals were stored and analyzed on a PC equipped with a serial IDAC interface box and the program EAD ver. 2.5 (Syntech, Hilversum, The Netherlands). In addition, GC-EAD responses to a synthetic mixture (100 ng/μl each) containing nine known HIPVs including cis-3-hexen-1-ol, cis-3-hexenyl acetate, trans-β-ocimene, (E)-4,8-dimethyl-1,3,7-nonatriene, linalool, methyl salicylate, geranyl acetate, trans-β-caryophyllene and trans-β-farnesene were tested on the P. dominulus workers. (See FIG. 2.) The same chemicals were also tested on beneficial insect antennae from Chrysopa oculata, Myrmeleon crudelis, Podisus maculiventris, and Hippodarnia convergens. (See FIG. 6.) Antennally active peaks in the aeration samples were identified by GC-MS on an HP 6890 GC series coupled with an HP 5973 Mass Selective Detector using the same type of GC column and conditions as described above. Compounds were identified by comparison of retention times with those of authentic standards and with mass spectra of standards.
# V. vulgaris = test: Field trapping Experiment 1, Rescue W•H•Y traps; assay type: in vivo, Vespula vulgaris; conditions: Exp 1; HIPV added to WHY attractant in the top chamber, or WHY alone
# Description: as §1, §4, §3
# D. arenaria = test: Field trapping Experiment 1, Rescue W•H•Y traps; assay type: in vivo, Dolichovespula arenaria; conditions: Exp 1; HIPV added to WHY attractant in the top chamber, or WHY alone
# Description: as §1, §2, §3
# V. pensylvanica [3] = conditions: background; cited from earlier work
# [4] = system: Polistes dominulus worker antennae; test: GC-EAD of cherry branch aeration samples; conditions: aeration of severely damaged cherry branches; at current release rates
# Description: Lapin cherry branches with severely damaged cherries and leaves and undamaged or slightly damaged branches were collected from a cherry orchard at Creston, Canada, on Jul. 29, 2009, and were transported to the Sterling International, Inc. lab (Spokane, Wash.) on the same day and kept at 4° C. before aerations. Headspace volatiles from the cherry branches (damaged or undamaged) were sampled by a battery operated pump and a high density polyacetate oven bag (48.2×59.6 cm Reynolds® Oven Bag; Richmond, Va., USA) enclosure with one activated charcoal filter tube in the air inlet, on Jul. 30, 2009. The volatiles in the enclosure were trapped on one Porapak Q tube (50/80 mesh; 30 mg in Teflon tube: 3 mm×35 mm) for 2.5 hr (airflow 300 ml/min) and extracted with 1 ml redistilled pentane. Aeration samples of the cherry branches (damaged or undamaged/slightly damaged) were injected (3 μl) splitless into a Varian CP-3800 GC equipped with a polar column (HP-INNOWax; 30 m×0.53 mm×1.0 μm film thickness; […] Helium was used as the carrier gas, and the injector and detector temperatures were 250° C. and 300° C., respectively. Column temperature was 50° C. for 1 min, rising to 240° C. at 10° C./min, and then held for 10 min. The outlet for the EAD was held in a humidified air stream flowing at 0.5 m/sec over the antennal preparation. EAD recordings were made using silver wire-glass capillary electrodes filled with Beadle-Ephrussi Ringer on freshly cut antennae. The antennal signals were stored and analyzed on a PC equipped with a serial IDAC interface box and the program EAD ver. 2.5 (Syntech, Hilversum, The Netherlands). […] (See FIG. 2.) The same chemicals were also tested on beneficial insect antennae from Chrysopa oculata, Myrmeleon crudelis, Podisus maculiventris, and Hippodarnia convergens. (See […] active peaks in the aeration samples were identified by GC-MS on an HP 6890 GC series coupled with an HP 5973 Mass Selective Detector using the same type of GC column and conditions as described above. Compounds were identified by comparison of retention times with those of authentic standards and with mass spectra of standards.
# yellowjackets = test: Field trapping Experiment 1, top chamber catches; assay type: in vivo; conditions: Exp 1; HIPV combined with W•H•Y attractant (acetic acid and 2-methyl-1-butanol) in the top chamber
# Description: as §1
# Experiment 3 (Aug. 5-13, 2009) was conducted to determine the potential behavioral activity of different doses of (E)-4,8-dimethyl-1,3,7-nonatriene alone. The individual (or different doses) HIPVs were loaded into either polyethylene bags or centrifuge tube type of dispensers, and released from the top of the W•H•Y trap chamber. […]
# V. vidua = conditions: background; cited from earlier work
# [5] = system: yellowjackets occurring in the Eastern United States, hornets and paper wasps; conditions: background; cited from earlier work
SMILES,Total Yellowjacket Catches D. maculata (D. maculata),Total Paper Wasps P. dominulus (P. dominulus),Total Yellowjacket Catches V. acadica (V. acadica),Total Yellowjacket Catches V. pensylvanica (V. pensylvanica [1]),Total Paper Wasps P. aurifer (P. aurifer),Total Yellowjacket Catches V. consobrina (V. consobrina),Total Yellowjacket Catches V. atropilosa (V. atropilosa),EAD response of worker antennae [2],Total Yellowjacket Catches V. vulgaris (V. vulgaris),Total Yellowjacket Catches D. arenaria (D. arenaria),attraction (V. pensylvanica [3]),EAD response of worker antennae [4],effect on trap catches of yellowjackets in the top chambers (yellowjackets),attraction (V. vidua),attraction [5]
"C=C1CC/C=C(\C)CC[C@@H]2[C@@H]1CC2(C)C (relative stereo) [β-Caryophyllene, trans-β-caryophyllene]",0,35,2,234,12,1,1,No repeatable EAD-responses,51,5,–,–,–,–,–
"CC=CC=CCOC(=O)CCC [2,4-hexadienyl butyrate]",–,–,–,–,–,–,–,–,–,–,powerfully attractive,–,–,–,–
"C=CC(=C)CC/C=C(\C)CCC=C(C)C [E-β-Farnesene, trans-β-farnesene]",8,29,0,321,13,0,1,No repeatable EAD-responses,36,10,–,–,–,–,–
"C=C/C(C)=C/CC=C(C)C [Ocimene, cis-ocimene]",17,29,0,402,17,0,2,–,52,11,–,did not elicit significant EAD-responses,significant synergistic effect,–,–
"CCCCC/C=C\C=C\C(=O)OCC [ethyl (E,Z)-2,4-decadienoate]",–,–,–,–,–,–,–,–,–,–,–,–,–,attracted,–
CCCCCCCOC(=O)CCC [heptyl butyrate],–,–,–,–,–,–,–,–,–,–,as attractive,–,–,–,ineffective
